The source of these data is patent US20230293524A1, “OTIC FORMULATIONS FOR DRUG-INDUCED OTOTOXICITY” (Spiral Therapeutics Inc, priority 2019, published 2023).

The test system of data set [1] is outer hair cells (OHCs) and inner hair cells (IHCs). Briefly: Cochlear explant model: hair cell protection against cisplatin. In kind it is cell-based, Sprague-Dawley rats. Particulars: for EC100: Rattus norvegicus, read-out: Ex-vivo Efficacy Conc. for complete protection of hair cells (uM); for protection of hair cells against cisplatin: 1.5 hour pretreatment followed by co-treatment at different concentrations with 10 μM cisplatin. From the text: (§1) For hair cell and spiral ganglion assessment, postnatal Sprague-Dawley rats (P2-P4) of both sexes are anesthetized with isoflurane and decapitated. Temporal bones are removed and transferred to a cell culture dish with ice-cold Ca^2+/Mg^2+-containing phosphate-buffered saline (PBS; Invitrogen) or cold HBSS medium enriched with glucose. Under microscopic visualization, the cochlear capsules are carefully removed from the temporal bone using forceps and transferred to a new cell culture dish containing ice-cold PBS. The cochleae are then dissected from the cochlear capsule using fine forceps. The stria vascularis is removed from the cochlear tissue and discarded. Dissected cochlear epithelia are transferred to permeable membrane inserts (Millicell organotypic culture plate inserts, Millipore) which are placed into 1 mL of culture media (Dulbecco's modified Eagle's medium (high glucose, Glutamax, 25 mM HEPES) with 10% fetal bovine serum, 1% N2 supplement and 10 units/ml penicillin) in a 6-well plate. Up to 4 cochleae are placed onto each membrane. Explants are placed in a humidified chamber with 5% CO2 at 37° C. for a minimum of 18 hours prior to treatment. Cultures are then pre-treated with test compounds and returned to the incubator for a period of 10 minutes to 48 hours.
(§2) Following the incubation period, cochlear samples are fixed in 4% paraformaldehyde for a minimum of 30 minutes after treatment then permeabilized in 0.5% Triton in PBS (PBST) for 1 hour, followed by overnight incubation at 4° C. in primary antibodies in 10% goat or donkey serum (Sigma). Samples are then rinsed in PBST 2 times for 10 minutes each then incubated in alexa-488 conjugated secondary antibodies for 2 hours at room temperature or overnight at 4° C. in 10% goat or donkey serum (Sigma). Samples are then rinsed 2 times in PBS then incubated in DAPI (1:3000) in PBS for 5 minutes prior to mounting on slides. To evaluate the otoprotective efficacy of the compounds, cochlear samples are immunostained using combination of antibodies generated against markers specific for hair cells (Myosin V1, Myosin VIIA, Parvalbumin, etc.), SGNs (TUJ1, Neurofilament, etc.), f-actin, cell death, cell stress, etc. as well as a nuclear stain to identify cell nuclei.
(§3) Immunostained samples are mounted on glass slides and imaged with an LSM880 laser scanning confocal microscope (Zeiss) or an Operetta high-content imager (Perkin Elmer). The entire explant is imaged for all antibody and nuclear labeling in a 3-dimensional X-Y-Z plane in which the Z-plane consists of a stack imaged at intervals of 0.5-5 μm. The total length of the organ of Corti in each explant is then determined and is divided into 4 equal length regions. Basal, middle and apical hair cells or SGNS are counted at the regions approximately 25%, 50% or 75% of the total cochlear length from the base, respectively. Hair cell survival is determined by counting the number of inner and outer hair cells at these three different regions (base, middle and apex) in each cochlear explant and determining the number of missing/dead hair cells per cochlear region. Hair cell counts are obtained by placing a 200 μm length scale bar parallel to the rows of hair cells at each region and manually counting the total number of outer hair cells (OHCs) and inner hair cells (IHCs) within the 200 μm. Similarly, to evaluate the health and survival of SGNs, the density of SGN fibers or soma is also determined per region by manual counting for same region selected for counting hair cells. Nuclear staining is analyzed to confirm the presence or absence of cell nuclei and to evaluate nuclear health. Image analysis and quantification is performed using Zeiss Zen Blue software, or Perkin Elmer Columbus software.
(§4) Neonatal (P2-P4) Sprague-Dawley rats were used for the experiments described here. Animals were euthanized following anesthesia using isoflurane. Rat cochleae were then dissected in cold HBSS medium enriched with glucose. […]

The nature of data set [2]: Cisplatin binding, % bound.
For data set [3], the system named is spiral ganglion neurons (SGNs). In words: Cochlear explant model: spiral ganglion neuron protection against cisplatin. In kind it is cell-based, Sprague-Dawley rats. Particulars: 1.5 hour pretreatment followed by co-treatment at different concentrations with 10 μM cisplatin.
From the text: as §1, §2, §3, §4

Data set [4] is described as follows: Cisplatin reaction kinetics by HPLC. As to conditions: 50 μM cisplatin + 50 μM of compound (API) in PBS, pH 7.4, 37° C. How it is done: Reaction kinetics between Cisplatin and the compound of interest (nucleophile) were monitored by high performance liquid chromatography. Isocratic separation was achieved using a Waters Spherisorb C8 column (4×250 mm, 5 μm, 80 Å). The flow rate was set to 1.00 mL/min. The mobile phase consisted of 5 mM Sodium Octanesulfonate+5 mM Tetrabutyl Ammonium Hydrogen Sulfate+20 mM Potassium Dihydrogen Phosphate adjusted to pH 5.9. Detection was performed at a wavelength of 210 nm.
Reactions were conducted at equimolar concentrations in buffered aqueous media and held at 37° C. Rate constants (k) were determined by monitoring the disappearance of Cisplatin as a function of time.

Data set [5] is described as follows: Pharmacokinetic study after intratympanic administration. In kind it is in vivo, rats. As to conditions: cochlear epithelium, 24 h after dosing. As for the experimental part: Female rats (Charles River) weighing 200-300 g of approximately 12-16 weeks of age served as subjects (N=4 per group). Prior to any procedures, animals were anesthetized using a combination of xylazine (10 mg/kg), ketamine (50 mg/kg), and acepromazine (1 mg/kg) for up to an hour via the intraperitoneal route. If needed, an intraoperative booster was administered intraperitoneal representing a one-tenth of the original dose.
Intratympanic injection—Each animal was positioned so that the head was tilted at an angle to favor injection towards the round window niche. […] Formulations were delivered using a perfusion pump at the rate of 2 μL/sec. Contact with the round window membrane was maintained for 30 minutes by placing the animal in a recumbent position. During the procedure and until recovery, animals were placed on a temperature controlled (40° C.) heating pad until consciousness was regained at which time they were returned to the vivarium.
Perilymph sampling procedure—The skin behind the ear of anesthetized rats was shaved and disinfected with povidone-iodine. An incision was then made behind the ear, and muscles were carefully retracted from over the bulla. A hole was drilled through the bulla using a dental burr so that the middle ear was exposed and accessed. The cochlea and the round window membrane were visualized under a stereo surgical microscope. The basal turn of bulla was cleaned by using small cotton ball. A unique microhole was hand drilled through the bony shell of the cochlea (cochlear capsule) adjacent to the round window. Perilymph (about 2 μL) was then collected using a microcapillary inserted into the cochlear scala tympani. Perilymph samples were added to a vial containing 18 μL of acetonitrile/water, stored at −80° C. until analysis.
Cochlear epithelium sampling procedure—Under a dissection scope, the bulla was opened, and the cochlea was exposed by removing all surrounding muscles, blood vessels and bone tissues. Holding the bulla, the cochlear wall bony structure was removed working from the base to the apex of the cochlea, exposing the organ of Corti. The exposed cochlear epithelium was gently dabbed with cotton swab to remove excess of liquid from tissue, carefully transferred to labelled tube. Each 2-mL plastic tube that contained acid washed 2.8 mm stainless steel beads was pre-weighed. The tubes were reweighed after adding cochlea epithelium and weights were recorded. All cochlea epithelium samples were placed in dry ice immediately after collection and stored at −80° C. prior to analysis.
Plasma sampling procedure—Blood samples were collected by cardiac puncture into labeled micro-tubes, containing lithium heparin as anticoagulant. Plasma were immediately harvested from the blood by centrifugation and collection for supernatants. All plasma samples were stored at −80° C. prior to analysis.
Samples were extracted by protein precipitation, then vortexed and centrifuged. The supernatant was collected and diluted with two folds of water. A high-performance liquid chromatography system (Agilent 1200 series) with Waters Cortecs C18 Plus column (50*4.6 mm, 2.7 μm) were used. The flow rate was set at 0.700 mL/min. A gradient method with an analytical run time of 5 minutes was used. Mobile phase A consisted of 0.01% ammonium formate, 0.03% formic acid in water. Mobile phase B consisted of 0.01% ammonium formate, 0.03% formic acid in acetonitrile: methanol (70:30, v/v). The gradient began with 30% B, stepped to 70% B at 2.75 minutes and held for 1 minute and then stepped back to 30% B to re-equilibrate the column.
Ionizations and detection of analyte and internal standard were performed on a triple quadruple mass spectrometer, API 5500 Q-Trap equipped with Turbo IonSpray@, from SCIEX (Toronto, Canada). Electro spray ionization (ESI) mass spectra was operated in the positive ion mode. Carbutamide was used as the internal standard (IS). […]

A short description of data set [6]: Rat cisplatin IP PK study, total platinum by ICP-MS. In kind it is in vivo. As to conditions: for Cmax: read-out: Cmax concentrations in perilymph and cochlear tissues. How it is done: Total platinum level in samples were analyzed by a qualified inductively coupled plasma mass spectrometric detection (ICP-MS) developed in QPS (Netherlands Lab). Ruthenium were used as internal standard. A flow injection analysis (FIA) method was used to using HPLC pump to introduce samples and internal standard into the systems but without HPLC column. The ICP-quadrupole-MS of Perkin Elmer Sciex Elan 6100 ICP-MS System equipped with a peristaltic pump, nebulizer, spray chamber, and quartz torch were used in platinum analyses.
Sample transport from the autosampler to the nebulizer was performed using a peristaltic pump. The instrument was cooled by using argon gas of 99.999% purity. Data were acquired and processed using the Analyst 1.6. The instrument settings of the ICP-MS had the following operating parameters: ICP radio frequency (RF) power, 1500 W; RF matching, 1.80 V; sampling depth, 8.0 mm; carrier gas, 0.90 L/min; makeup gas, 0.21 L/min; nebulizer pump, 0.10 rps; He gas, 4.5 mL/min; extract 1, 0.0 V; extract 2, −120.0 V; cell entrance, −30 V; cell exit, −30 V; QP bias, −16.0 V; Octp bias, −20.0 V.
The mass to charge ratio is determined by the detector. […] Electronic signals were compared to the standardized curve generated from ultra-high purity platinum samples and solvents. Accounting for dilutions, comparison of the sample signal to the standardized curve will allow for the determination of the original total platinum concentration.
Intraperitoneal injection—The lower right quadrant of the abdomen was shaved and disinfected with alcohol and then povidone iodine. Animals were placed in a supine position and the hind legs were lifted at a 40-degree angle in order to move the abdominal organs towards the diaphragm. A 1″ 23G needle or larger was inserted into the abdominal cavity, directed towards the animal's head, at a 15-20-degree angle and inserted approximately 5 mm. […] After removal of the syringe from the peritoneal cavity, triple antibiotic was placed on the injection site to help prevent infection. During the procedure and until recovery, animals were placed on a temperature controlled (40° C.) heating pad until consciousness was regained at which time they were returned to the vivarium.
Protocol: 3 animals per group at time points. Group A: 30 min, 1 hr, 2 hr, 6 hr, 1 day, 3 day, 7 day, 28 day. Group B: 30 min, 1 hr, 2 hr, 6 hr, 1 day, 3 day. Bioanalysis: Plasma, Perilymph, Cochlear epithelium, CSF. Bioanalytical Method: Total Platinum by ICP-MS.

The mark [7] stands for this setting: intraperitoneal (IP) administration.

Read-outs that look alike come from different tables or passages of the source. A value given as a limit tells only on which side of the number the result lay.

`CSC[C@H]1O[C@@H](n2cnc3c(N)ncnc32)[C@H](O)[C@@H]1O` [5-Deoxy-5-methylthioadenosine]: in data set [1] (ex vivo cochlear explants, cisplatin), the “Ex-vivo Efficacy Conc. for complete protection of hair cells (uM)” value is “No protection”.

For the compound `CC(=O)c1c[nH]c(=S)n(-c2ccc(C)cc2)c1=O` [5-acetyl-3-(p-tolyl)-2-thiouracil], the EC100 in data set [1] stood at 500 µM. In data set [1] (ex-vivo cochlear explants, comparison of thiouracils), the “potency on HC protection” value is “lower potency”.

`Sc1ncnc2nc[nH]c12` [6-mercaptopurine]: in data set [1], the “protection of hair cells against cisplatin” value is on record as “complete protection” and the EC100 is 50 to 100 µM. Moreover, in data set [2], the “Cisplatin Binding % bound (in 30 min) at 1:10 ratio” value stood at 60%. In addition, the “protection of spiral ganglion neurons against cisplatin” value (from here on “protection of spiral ganglion neurons”) in data set [3] is on record as “near complete protection”.

Consider `COc1cc(=O)[nH]c(=S)[nH]1` [6-methoxy-2-thiouracil], for which, in data set [1], the EC100 is 50 to 100 µM.

Regarding `Nc1nc2c(ncn2[C@H]2C[C@H](O)[C@@H](CO)O2)c(=S)[nH]1` [6-thio-2′-deoxy guanosine], in data set [1], the “protection of hair cells against cisplatin” value is given as “complete protection” and the EC100 is 100 µM. For the same compound, the “Cisplatin Binding % bound (in 30 min) at 1:10 ratio” value in data set [2] amounted to 50%. Further, the “protection of spiral ganglion neurons” value in data set [3] is recorded as “near complete protection”.

As to `Nc1nc2nc[nH]c2c(=S)[nH]1` [6-thioguanine], in data set [1], the “protection of hair cells against cisplatin” value was “complete protection” and the EC100 lay in the range of 50 to 100 µM. Also, the “Cisplatin Binding % bound (in 30 min) at 1:10 ratio” value in data set [2] was 80%. Also, the “protection of spiral ganglion neurons” value in data set [3] was “near complete protection”.

As to `Nc1nc2c(ncn2[C@@H]2O[C@H](CO)[C@@H](O)[C@H]2O)c(=S)[nH]1` [6-thioguanosine], in data set [1], the “protection of hair cells against cisplatin” value is on record as “complete protection” and the EC100 was 50 to 100 µM. The “protection of spiral ganglion neurons” value in data set [3] is listed as “near complete protection”.

For the compound `O=c1cc[nH]c(=S)[nH]1` [Compound 2-thiouracil, 2-thiouracil], the EC100 in data set [1] was in the range of 50 to 100 µM. Moreover, the “k” value in data set [4] amounted to 0.15 M⁻¹ s⁻¹.

Take `CSCC[C@@H](N)C(=O)O` [D-methionine, reference compound]: in data set [1], the EC100 was found to be 10000 µM. In data set [4], the “k” value stood at 0.07 M⁻¹ s⁻¹. Moreover, in data set [5], the “In vivo PK in Cochlear Epithelium (24 h after dosing)” value is given as ~200 ng/gm CE. Moreover, the “Cisplatin Binding % bound (in 30 min) at 1:10 ratio” value in data set [2] amounted to 40%.

Take `O=S(=O)(O)CCS` [MESNA, reference compound]: the “k” value in data set [4] was found to be 0.05 M⁻¹ s⁻¹.

Take `N.N.[Cl][Pt][Cl]` [cisplatin]: in data set [6] (dosed at 10 mg/kg IP), the “Cmax concentrations in perilymph and cochlear tissues” value lay in the range of 700 to 750 ng/mL; the Cmax lay within 2300 to 2500 nM. For the same compound, in data set [6] (dosed at 12 mg/kg IP), the “Cmax concentrations in perilymph and cochlear tissues” value was 700 to 900 ng/mL; the Cmax lay within 2300 to 3000 nM. In data set [6] (setting [7]), the “time of peak cisplatin levels in cochlear tissues” value was found to be 6 h and the “time of peak cisplatin levels in perilymph” value is ≤ 30 min.
